# Data from publication PMC2737686 (Virology, 2009).
# Peptide text beside a SMILES is read from it.
# How the values were obtained:
# ε RNA = test: Filter-binding assay of peptides, ε RNA; design: species or system Duck hepatitis B virus; conditions: peptide 10 pMol to 0.3 pMol on filter; 32P-labeled ε RNA
# DHBV core gene RNA = test: Filter-binding assay of peptides, DHBV core gene RNA; design: species or system Duck hepatitis B virus; conditions: 32P-labeled DHBV core gene RNA
# [1] = system: double-stranded DNA fragment; test: Filter-binding assay of peptides, double-stranded DNA; conditions: 32P-labeled double-stranded DNA fragment
smiles,measurement,setting,value
CC[C@H](C)[C@H](NC(=O)[C@H](CCCNC(=N)N)NC(=O)[C@H](CC(N)=O)NC(=O)[C@@H]1CCCN1C(=O)[C@H](Cc1c[nH]c2ccccc12)NC(=O)[C@@H](N)CO)C(=O)N[C@H](C(=O)NCC(=O)N[C@@H](CCCCN)C(=O)N[C@@H](CC(C)C)C(=O)N[C@@H](Cc1ccccc1)C(=O)N[C@@H](CC(C)C)C(=O)N[C@H](C(=O)N[C@@H](CC(=O)O)C(=O)N[C@@H](CCCCN)C(=O)N[C@@H](CC(N)=O)C(=O)N[C@@H](CO)C(=O)N[C@@H](CCCNC(=N)N)C(=O)N[C@@H](CC(N)=O)C(=O)N[C@H](C(=O)N[C@@H](CCC(=O)O)C(=O)N[C@@H](CCC(=O)O)C(=O)N[C@@H](C)C(=O)N[C@@H](CCCNC(=N)N)C(=O)N[C@@H](CC(C)C)C(=O)N[C@H](C(=O)N[C@H](C(=O)N[C@@H](CC(=O)O)C(=O)N[C@@H](Cc1ccccc1)C(=O)N[C@@H](CO)C(=O)N[C@@H](CCC(N)=O)C(=O)N[C@@H](Cc1ccccc1)C(=O)N[C@@H](CO)C(=O)N[C@@H](CCCCN)C(=O)NCC(=O)N[C@@H](CCCCN)C(=O)O)C(C)C)C(C)C)[C@@H](C)O)C(C)C)[C@@H](C)O [RT1C] (H-SWPNRITGKLFLVDKNSRNTEEARLVVDFSQFSKGK-OH; N-terminus and C-terminus assumed),"RNA binding to ε, relative (peptide titration)",ε RNA,bound RNA less well than the T3B peptide
same,Binding to irrelevant DHBV core gene RNA,DHBV core gene RNA,able to bind to an irrelevant RNA derived from the DHBV core gene
same,Binding to double-stranded DNA,[1],able to bind to an irrelevant RNA derived from the DHBV core gene and to a double-stranded DNA fragment
